This assay deals with T1, HRTV Gc (Heartland virus, UniProt J3WAX0).
T1 construct: gene GP
Description: biochemical. The class given is binding.

Read-outs that look alike come from different tables or passages of the source.

T1 sequence (J3WAX0 567-999 limits assumed): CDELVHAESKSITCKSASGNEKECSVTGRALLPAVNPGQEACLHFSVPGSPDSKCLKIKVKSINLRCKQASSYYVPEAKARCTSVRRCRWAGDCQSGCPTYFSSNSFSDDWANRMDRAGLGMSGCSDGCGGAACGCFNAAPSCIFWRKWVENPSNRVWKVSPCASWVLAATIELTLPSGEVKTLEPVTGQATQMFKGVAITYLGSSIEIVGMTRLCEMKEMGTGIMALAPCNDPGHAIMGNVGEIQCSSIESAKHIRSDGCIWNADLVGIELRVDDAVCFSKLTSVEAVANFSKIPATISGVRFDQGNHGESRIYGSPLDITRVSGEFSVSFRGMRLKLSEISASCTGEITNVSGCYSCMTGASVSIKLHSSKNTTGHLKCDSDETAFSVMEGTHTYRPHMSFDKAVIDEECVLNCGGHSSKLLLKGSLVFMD

Usually Kd stands for the free concentration of one partner at which half of the binding sites on the other are occupied at equilibrium, for simple one-to-one binding. As to GlcCer, where the note is “read-out: KD”, the Kd was below 0.001 µM. For the compound GalCer, the Kd (read-out: KD) came out at 0.6 µM.

In turn, `CCCCCCCC/C=C\CCCCCCCC(=O)OC[C@H](COP(=O)([O-])OCC[N+](C)(C)C)OC(=O)CCCCCCC/C=C\CCCCCCCC` [DOPC] yielded a Kd of 2.1 µM.
